In patent publication US20130177610A1, “NANO-METALLIC ALLOY DELIVERY SYSTEM FOR TREATMENT OF INFECTED CELLS AND LEGIONS” (UNIVERSITY OF NORTH CAROLINA AT GREENSBORO, priority 2008, published 2013):

Tested on: S. Aureus in osteoblast cells
Assay: Confocal microscopy live/dead staining (SYTO 9 / propidium iodide) of infected osteoblasts
Format: cell-based, Staphylococcus aureus
Conditions: gentamycine alone, FIG. 6C
Description: Confocal microscopy provided the evidence for intracellular bacteria killing. Osteoblast cells were cultured on 18 mm cover slips in a six well plate. Cells were treated with nanoparticles 1 ug/mL. The stain used was from invitrogen (L-7002) with two types of Dyes, SYTO 9 dye, 3,34 mM (Component A), 300 μL solution in DMSO and Propidium iodide PI, 20 mM (Component B), 300 μL solution in DMSO. The plates were incubated in the dark for 15 minutes after which the coverslips with growing co-cultured cells were gently removed and were placed on a glass slide containing 50 μL of 10%A glycerol with cells lying between the cover slip and the glass slide. The slide was observed under a confocal microscope using bandpass filters for red and green color. Images were obtained at different working distances and were superimposed by an Olympus CCD camera software to get images with dual color. […] Gentamycine is an antibiotic that is not capable of penetrating the bone cells membrane.

## gentamycine
  dead bacteria (red) in infected osteoblast cells, confocal image: no significant numbers of dead bacteria
